26 compounds from patent publication US20200016159A1, “N3-CYCLICALLY SUBSTITUTED THIENOURACILS AND USE THEREOF” (Bayer Aktiengesellschaft, priority 2016, published 2020) can be followed below.

SMILES strings stand for the structures.

The target of this assay is T1, human adenosine A2b receptor (Homo sapiens, UniProt P29275).
T1 sequence (P29275 1-332): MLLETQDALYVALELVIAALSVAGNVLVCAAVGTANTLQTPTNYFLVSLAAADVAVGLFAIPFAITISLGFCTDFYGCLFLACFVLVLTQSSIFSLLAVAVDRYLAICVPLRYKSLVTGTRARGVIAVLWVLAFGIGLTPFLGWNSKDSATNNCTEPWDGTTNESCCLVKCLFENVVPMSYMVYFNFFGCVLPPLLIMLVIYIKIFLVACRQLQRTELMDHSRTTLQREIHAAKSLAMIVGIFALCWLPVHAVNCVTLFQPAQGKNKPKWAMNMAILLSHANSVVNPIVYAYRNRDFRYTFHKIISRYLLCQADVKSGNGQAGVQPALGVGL
In words: Cellular in vitro reporter gene test for A2b receptor activity (antagonism of NECA). As to conditions: recombinant CHO-K1 cells, CRE-luciferase reporter, co-incubation with EC50 concentration of NECA, 3 hours. It counts as cell-based. Also on record: expressed in transfected cells; host or cells: CHO-K1 (Chinese hamster ovary) with CRE-luciferase reporter. The essentials: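 Antagonism measured as block of NECA-induced, cAMP/CRE-dependent luciferase expression in recombinant A2b CHO-K1 cells. NECA used at the EC50 set in a pre-experiment on each test day; luminescence detected after 3 h. Reported as IC50, partly averaged and rounded to two significant figures.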
In general terms: In a reporter assay the amount or activity of a reporter protein is the signal.
For orientation: IC50 means the concentration that inhibits the measured activity by half. As to `Cc1c(CN2CCNC2=O)sc2c1c(=O)n(C1CC1C)c(=O)n2CCOC(F)(F)F` (single isomer, unassigned) [Example 262, 5-Methyl-3-(2-methylcyclopropyl)-6-[(2-oxoimidazolidin-1-yl)methyl]-1-[2-(trifluoromethoxy)ethyl]thieno[2,3-d]pyrimidine-2,4(1H,3H)-dione], the 50% inhibitory concentration (IC50) came out at 1.2 nM.
Under `Cc1c(Cn2nc[nH]c2=O)sc2c1c(=O)n(C1CC1C)c(=O)n2CCOC(F)(F)F` (racemic) [Example 276, 5-Methyl-3-(2-methylcyclopropyl)-6-[(5-oxo-4,5-dihydro-1H-1,2,4-triazol-1-yl)methyl]-1-[2-(trifluoromethoxy)ethyl]thieno[2,3-d]pyrimidine-2,4(1H,3H)-dione] stands 2 nM.
Under `Cc1c(CN2CCNC2=NC#N)sc2c1c(=O)n(C1COC1)c(=O)n2CCC(F)(F)F` [Example 131, [1-{[5-Methyl-3-(oxetan-3-yl)-2,4-dioxo-1-(3,3,3-trifluoropropyl)-1,2,3,4-tetrahydrothieno[2,3-d]pyrimidin-6-yl]methyl}imidazolidin-2-ylidene]cyanamide] stands 68 nM; under `CO[C@H]1C[C@@H](n2c(=O)c3c(C)c(CN4CCNC4=O)sc3n(CCC(F)(F)F)c2=O)C1` [Example 154, 3-(cis-3-Methoxycyclobutyl)-5-methyl-6-[(2-oxoimidazolidin-1-yl)methyl]-1-(3,3,3-trifluoropropyl)thieno[2,3-d]pyrimidine-2,4(1H,3H)-dione], 23 nM.
Under `Cc1c(CN2CCNC2=O)sc2c1c(=O)n(C1CC1C)c(=O)n2CC1CC(F)(F)C1` (racemic) [Example 252, 1-[(3,3-Difluorocyclobutyl)methyl]-5-methyl-3-(2-methylcyclopropyl)-6-[(2-oxoimidazolidin-1-yl)methyl]thieno[2,3-d]pyrimidine-2,4(1H,3H)-dione] stands 1.4 nM.
On to `Cc1c(CN2CCNC2=O)sc2c1c(=O)n(C1CC1C)c(=O)n2CC(F)(F)F` (racemic) [Example 237, 5-Methyl-3-(2-methylcyclopropyl)-6-[(2-oxoimidazolidin-1-yl)methyl]-1-(2,2,2-trifluoroethyl)thieno[2,3-d]pyrimidine-2,4(1H,3H)-dione], for which the IC50 is 4.4 nM.
Under `Cc1c(CN2CCNC2=S)sc2c1c(=O)n(C1CC1)c(=O)n2CCCF` [Example 6, 3-Cyclopropyl-1-(3-fluoropropyl)-5-methyl-6-[(2-thioxoimidazolidin-1-yl)methyl]thieno[2,3-d]pyrimidine-2,4(1H,3H)-dione] stands 12 nM.
Under `Cc1c(Cn2nc[nH]c2=O)sc2c1c(=O)n(C1CC1)c(=O)n2CC1CCC1(F)F` (single isomer, unassigned; enantiomer 2) [Example 203, 3-Cyclopropyl-1-[(2,2-difluorocyclobutyl)methyl]-5-methyl-6-[(5-oxo-4,5-dihydro-1H-1,2,4-triazol-1-yl)methyl]thieno[2,3-d]pyrimidine-2,4(1H,3H)-dione (enantiomer 2)] stands 160 nM.
Consider `Cc1c(CN2CCNC2=O)sc2c1c(=O)n([C@H]1C[C@@H]1C)c(=O)n2CC1CCO1` (stereo partly drawn) [Example 282, 5-Methyl-3-[(1S,2S)-2-methylcyclopropyl]-1-(oxetan-2-ylmethyl)-6-[(2-oxoimidazoliidin-1-yl)methyl]thieno[2,3-d]pyrimidine-2,4(1H,3H)-dione], for which the IC50 stood at 4.1 nM.
Regarding `CCc1c(CN2CCNC2=O)sc2c1c(=O)n(C1(C)CC1)c(=O)n2CCOC` [Example 219, 5-Ethyl-1-(2-methoxyethyl)-3-(1-methylcyclopropyl)-6-[(2-oxoimidazolidin-1-yl)methyl]thieno[2,3-d]pyrimidine-2,4(1H,3H)-dione], the IC50 amounted to 400 nM.
Under `Cc1c(CN2CCNC2=O)sc2c1c(=O)n(C1CC1C)c(=O)n2CCCC(F)(F)F` (single isomer, unassigned) [Example 244, 5-Methyl-3-(2-methylcyclopropyl)-6-[(2-oxoimidazolidin-1-yl)methyl]-1-(4,4,4-trifluorobutyl)thieno[2,3-d]pyrimidine-2,4(1H,3H)-dione] stands 3.3 nM.
Under `COCCn1c(=O)n(C2CC3(CCC3)C2)c(=O)c2c(C)c(CN3CCNC3=NC#N)sc21` [Example 180, [1-{[1-(2-Methoxyethyl)-5-methyl-2,4-dioxo-3-(spiro[3.3]hept-2-yl)-1,2,3,4-tetrahydrothieno[2,3-d]pyrimidin-6-yl]methyl}imidazolidin-2-ylidene]cyanamide] stands 13 nM; under `Cc1c(Cn2nc[nH]c2=O)sc2c1c(=O)n([C@H]1C[C@@H]1C)c(=O)n2CC1CCC1` [Example 327, 1-(Cyclobutylmethyl)-5-methyl-3-[(1S,2S)-2-methylcyclopropyl]-6-[(5-oxo-4,5-dihydro-1H-1,2,4-triazol-1-yl)methyl]thieno[2,3-d]pyrimidine-2,4(1H,3H)-dione], 8.5 nM.
Under `Cc1c(CN2CCNC2=O)sc2c1c(=O)n(C1CC1)c(=O)n2C` [Example 1, 3-Cyclopropyl-1,5-dimethyl-6-[(2-oxoimidazolidin-1-yl)methyl]thieno[2,3-d]pyrimidine-2,4(1H,3H)-dione] stands 20 nM; under `Cc1c(CN2CCNC2=O)sc2c1c(=O)n(C1CC1(C)C)c(=O)n2CCCF` (single isomer, unassigned) [Example 98, 3-(2,2-Dimethylcyclopropyl)-1-(3-fluoropropyl)-5-methyl-6-[(2-oxoimidazolidin-1-yl)methyl]thieno[2,3-d]pyrimidine-2,4(1H,3H)-dione], 140 nM; under `Cc1c(Cn2nc[nH]c2=O)sc2c1c(=O)n(C1CC1)c(=O)n2C` [Example 2, 3-Cyclopropyl-1,5-dimethyl-6-[(5-oxo-4,5-dihydro-1H-1,2,4-triazol-1-yl)methyl]thieno[2,3-d]pyrimidine-2,4(1H,3H)-dione], 81 nM.
On to `COCCn1c(=O)n(C2CC(C)(C)C2)c(=O)c2c(C)c(CN3CCNC3=O)sc21` [Example 169, 3-(3,3-Dimethylcyclobutyl)-1-(2-methoxyethyl)-5-methyl-6-[(2-oxoimidazolidin-1-yl)methyl]thieno[2,3-d]pyrimidine-2,4(1H,3H)-dione], for which the IC50 was determined as 14 nM.
Under `Cc1c(CN2CCNC2=O)sc2c1c(=O)n(C1CC(F)(F)C1)c(=O)n2CCC(F)(F)F` [Example 120, 3-(3,3-Difluorocyclobutyl)-5-methyl-6-[(2-oxoimidazolidin-1-yl)methyl]-1-(3,3,3-trifluoropropyl)thieno[2,3-d]pyrimidine-2,4(1H,3H)-dione] stands 3.2 nM; under `Cc1c(CN2CCNC2=O)sc2c1c(=O)n(C1CC3(CCC3)C1)c(=O)n2CCC(F)(F)F` [Example 174, 5-Methyl-6-[(2-oxoimidazolidin-1-yl)methyl]-3-(spiro[3.3]hept-2-yl)-1-(3,3,3-trifluoropropyl)thieno[2,3-d]pyrimidine-2,4(1H,3H)-dione], 2.8 nM.
Under `Cc1c(CN2CCNC2=O)sc2c1c(=O)n(C1CC1)c(=O)n2C[C@@H]1CCCO1` [Example 39, 3-Cyclopropyl-5-methyl-6-[(2-oxoimidazolidin-1-yl)methyl]-1-[(2S)-tetrahydrofuran-2-ylmethyl]thieno[2,3-d]pyrimidine-2,4(1H,3H)-dione] stands 240 nM; under `COCCn1c(=O)n(C2CCCC2)c(=O)c2c(C)c(CN3CCNC3=NC#N)sc21` [Example 190, [1-{[3-Cyclopentyl-1-(2-methoxyethyl)-5-methyl-2,4-dioxo-1,2,3,4-tetrahydrothieno[2,3-d]pyrimidin-6-yl]methyl}imidazolidin-2-ylidene]cyanamide], 28 nM.
Under `CCCn1c(=O)n(C2CC2C)c(=O)c2c(C)c(CN3CCNC3=O)sc21` (single isomer, unassigned) [Example 228, 5-Methyl-3-(2-methylcyclopropyl)-6-[(2-oxoimidazolidin-1-yl)methyl]-1-propylthieno[2,3-d]pyrimidine-2,4(1H,3H)-dione] stands 5.8 nM; under `Cc1c(CN2CCNC2=NC#N)sc2c1c(=O)n(C1CC1C)c(=O)n2CCOC(F)(F)F` (single isomer, unassigned) [Example 266, [1-({5-Methyl-3-(2-methylcyclopropyl)-2,4-dioxo-1-[2-(trifluoromethoxy)ethyl]-1,2,3,4-tetrahydrothieno[2,3-d]pyrimidin-6-yl}methyl)imidazolidin-2-ylidene]cyanamide], 0.96 nM.
For the compound `CCn1c(=O)n(C2CC2)c(=O)c2c(C)c(Cn3nc[nH]c3=O)sc21` [Example 194, 3-Cyclopropyl-1-ethyl-5-methyl-6-[(5-oxo-4,5-dihydro-1H-1,2,4-triazol-1-yl)methyl]thieno[2,3-d]pyrimidine-2,4(1H,3H)-dione], the IC50 was 180 nM.
Under `Cc1c(Cn2nc[nH]c2=O)sc2c1c(=O)n(C1(C)CC1)c(=O)n2CC1CC1(F)F` (racemic) [Example 66, 1-[(2,2-Difluorocyclopropyl)methyl]-5-methyl-3-(1-methylcyclopropyl)-6-[(5-oxo-4,5-dihydro-1H-1,2,4-triazol-1-yl)methyl]thieno[2,3-d]pyrimidine-2,4(1H,3H)-dione] stands 140 nM; under `[2H]C([2H])(c1sc2c(c1C)c(=O)n(C1CC1)c(=O)n2CCOC)N1CCNC1=O` [Example 30, 3-Cyclopropyl-1-(2-methoxyethyl)-5-methyl-6-[(2-oxoimidazolidin-1-yl)dideuteromethyl]thieno[2,3-d]pyrimidine-2,4(1H,3H)-dione], 9.3 nM.
